Results on one compound are retold here after patent US11351134B2, “Small molecule agents, compositions, and formulations, for internal use, displaying inhibitory activity against gram-positive and/or gram-negative organisms” (NATUREZA, INC., priority 2017, dated 2022).

Like-named read-outs stand apart in the source and are kept apart here.

The subject of series [1] is Gram-positive pathogens and Gram-negative pathogens. Put plainly: In vitro inhibitory activity of chitosan- or carrier-containing particles. The conditions noted are these: synthesis (with chitosan) at pH 7 with positively charged chitosan. In kind it is cell-based. From the text:
(§1) For TABLES 1 to 3, compositions were generally prepared as described above, and as further outlined in this paragraph. For these examples, the active component, as a lauric acid derivative or lauric acid, was suspended in an organic solvent, chloroform, and then mixed with water, under robust agitation. The amount of water to the amount of chloroform was at least about 2:1, and could be as high as 10:1. Chloroform was then evaporated (e.g., under vacuum using a freeze dryer). After removal of the chloroform, a 2.2% lecithin solution in an acetate buffer (e.g., 98 mM acetic acid and 2 mM sodium acetate) was prepared and added, so the final amount of the active component was about 1 part active component mixture and about 9 parts of the 2.2% lecithin solution. Of course, it is noted that other ranges to achieve final amount of the active component as described above (e.g., active component mixture and lecithin solution) may also be utilized. Cholesterol could also be optionally added. The mixture of lecithin and the active component was mixed and sonicated, and then a solution of about 1.5% chitosan was added. Thereafter, the entirety of the mixture containing the lecithin and the active component was further blended, in which a final ratio was about 1 part active component to about 9 parts of the 2.2% lecithin solution to about 10 parts of the 1.5% chitosan solution. The pH was then varied, to a pH of 5, or a pH of 7, or a pH of 9. In some mixtures having a pH of 7, a chemical agent imparting a positive charge to the chitosan was included in a form of glycol chitosan. In these tests, the chemical agent used was glycol. In these examples, the amount of chemical agent, glycol was about one molecule glycol moiety to one molecule chitosan sacharide unit; higher amounts of glycol moieties are also acceptable, while lower amounts of glycol moieties were often found to decrease overall inhibitory activity associated with a composition when formed and tested in vitro. It is noted that negatively charged chitosan containing particles were prepared. […] After mixing, the mixtures could each be filtered through a […] filter. In some tests, the mixtures were sonicated before filtering. Sonication produced small particles. In some studies, particles were freeze dried as a powder (generally, after mixing, sonicating and filtering).
(§2) The positive controls were prepared and evaluated in a similar manner. All prepared samples were tested using a broth microdilution test.
This also occurs when the chitosan- or carrier-containing particle includes an active component that has a log P value that is less than 4 and includes a methyl and/or ethyl side chain (e.g., 12-amino-1-dodecanoic acid methyl ester). […]

Series [2] deals with Staphylococcus aureus (including MRSA strains). The series can be described thus: Broth microdilution (CLSI M07) of active component mixed with water only. Format: cell-based. The conditions noted are these: active component mixed with water only (miscible state); about 0.0009 wt. % to about 8 wt. %. How it is done:
(§3) Initially, to determine basic characteristics, each active component was separately mixed, generally under agitated conditions, with water, and each was miscible with water. Each, after being mixed with water, was tested in a broth microdilution assay, against a variety of bacteria using amounts of the each of the lauric acid derivatives, ranging from about 0.0009 wt. % to about 8 wt. %. The bacteria included Escherichia coli, and Staphylococcus aureus (including MRSA strains). The minimum inhibitory concentration (MIC) needed to prevent growth of the target bacteria was evaluated based on a method published by Clinical Laboratory Standards Institute (CLSI), broth microdilution method M-07 (M07). […] Each of the samples containing one of the lauric acid derivatives was compared with a positive control, decanoic acid.
A general note: Dilution methods test growth across graded concentrations, often in twofold steps.

A further series deals with Escherichia coli. The series is described as above. Format: cell-based. As to conditions: active component mixed with water only (miscible state); about 0.0009 wt. % to about 8 wt. %. The procedure:
as §3

The next series has as its system E. coli. The series can be described thus: Broth microdilution MIC of lecithin/chitosan particle compositions. Format: cell-based. As to conditions: maximum concentration tested 10 mg/ml; for MIC: Escherichia coli. How it is done:
as §3, §1, §2

In another series the test system is S. epidermidis. Described as above. As to conditions: Staphylococcus epidermidis; lecithin/chitosan particle composition; prep. mixture pH 5 or pH 7; maximum concentration tested 10 mg/ml; read-out: MIC (mg/ml) for S. epidermidis (chitosan prep. mixture was at pH 5 or at pH 7). In kind it is cell-based. How it is done: as §3, §1, §2
Series [3] is classed as in vivo. The conditions noted are these: mice, oral capsules approximately 4 mg active component in chitosan-containing particles, three times per day for seven days. From the text: Laboratory trials have shown that no resistance has developed in pathogens exposed to the compositions described herein, even with long term, repeated exposure (data not shown). In addition, no intrinsic resistance can or has been detected in target pathogens. […] A placebo group is also included, in which a group of 10 mice are given a placebo set of capsules, orally, three times per day and continued for seven days, each of the placebo set of capsules containing similarly prepared chitosan-containing particles without an active component, the preparation being generally as described herein. Initial mice have been infected with Salmonella typhimurium prior to oral delivery of one of the set of capsules. The capsules may be vegetable capsules. The capsules may have an enteric coating. For delivery, a formulation may be prepared in a manner understood in the relevant art. For delivery, a formulation may be in at least any one or more of the following forms: liquid, capsule, dried powder, mist, and the like. For delivery, the formulation will contain pharmaceutical grade materials, including one or more excipients and or fillers for internal and/or topical delivery in sufficient amounts known to those of skill in the relevant art. Flavors, colors, sugars, sugar-substitutes, and the like may also be included in any of the formulations, as is understood to those of skill in the relevant art.

Turning to `COC(=O)CCCCCCCCCCCN.Cl` [12-amino-1-dodecanoic acid methyl ester HCl], in series [1], the “Inhibitory activity against both Gram-positive pathogens and Gram-negative pathogens” value is given as “stronger inhibitory activity as well as broad spectrum activity”. In addition, the “Inhibitory activity against Gram-positive bacteria (e.g., S. aureus)” value in series [2] is on record as “does not, in the miscible state, demonstrate inhibitory activity”. Further, the “Inhibitory activity against Gram-negative bacteria (e.g., E. coli)” value with Escherichia coli is listed as “does not, in the miscible state, demonstrate inhibitory activity”. Further, the MIC in the series on E. coli (lecithin/chitosan particle composition, prep. mixture pH 9, read-out: MIC (mg/ml) for E. coli (chitosan prep. mixture was at pH 9)) was 10 mg/mL; in the series on E. coli (lecithin/glycol chitosan particle composition, prep. mixture pH 7, read-out: MIC (mg/ml) for E. coli (chitosan prep. mixture was at pH 7 with glycol chitosan)), 0.8 mg/mL; in the series on S. epidermidis, 10 mg/mL. For the same compound, the “MIC (mg/ml) for E. coli (chitosan prep. mixture was at pH 5 or at pH 7)” value with E. coli (lecithin/chitosan particle composition, prep. mixture pH 5 or pH 7) is on record as “— (no inhibitory activity)”. Also, the “Safety in animal trials” value in series [3] was “no safety concerns”.
